Data: patent US11214594B2, “Antimicrobial peptide having synergistic antibacterial effect with antibiotics on multidrug resistant bacteria, and use thereof” (priority 2016, dated 2022)
≈ marks a conversion by molar mass, not a printed value. Like-named read-outs stand apart in the source and are kept apart here. Where a SMILES comes first, the peptide text is derived from it.

Tests used:
P. aeruginosa = assay: microbe, parasite or virus in culture; assay type: cell-based, Pseudomonas aeruginosa
Method in brief: (§1)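 Broth microdilution in MH medium: strains diluted to 2×10^6 CFU were mixed with equal volumes of twofold serial peptide dilutions in MH medium. MIC was taken as the lowest peptide concentration preventing bacterial growth.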

E. coli [1] = assay: MIC of antibiotic during combined treatment with antimicrobial peptide; assay type: cell-based, Escherichia coli; conditions: for Antibiotic MIC, Erythromycin / Antibiotic MIC, Linezolid / Antibiotic MIC, Vancomycin: E. coli
Method in brief: (§2)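 Read-out is the MIC of each combined solution, obtained from MH-medium dilutions of antibiotic added well by well, with a reversed-condition run as well.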

A. baumannii [2] = assay: MIC of antimicrobial peptide during combined treatment with antibiotic; assay type: cell-based, Acinetobacter baumannii
Method in brief: (§3)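 Strains in MH medium at 2×10^6 CFU/ml were mixed with peptide diluted stepwise (2:1) from its MIC, then antibiotic dilutions in MH medium were added to give the antibiotic MIC. The reversed set-up, peptide titrated against fixed antibiotic, gave the peptide MIC.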

MDRAB 12035 [3] = assay: as above; assay type: cell-based, Acinetobacter baumannii
Method in brief: as §3

MDREC 1229 [4] = assay: microbe, parasite or virus in culture; assay type: cell-based, Escherichia coli
Method in brief: as §1

E. coli [5] = assay: microbe, parasite or virus in culture; assay type: cell-based, Escherichia coli; conditions: 16 h
Method in brief: as §1

A. baumannii [6] = assay: microbe, parasite or virus in culture; assay type: cell-based, Acinetobacter baumannii
Method in brief: as §1

MDRAB 12035 [7] = assay: microbe, parasite or virus in culture; assay type: cell-based, Acinetobacter baumannii
Method in brief: as §1

A. baumannii [8] = assay: MIC of antibiotic during combined treatment with antimicrobial peptide; assay type: cell-based, Acinetobacter baumannii; conditions: for Antibiotic MIC, Erythromycin / Antibiotic MIC, Linezolid / Antibiotic MIC, Vancomycin: A. baumannii
Method in brief: as §2

B. subtilis = assay: microbe, parasite or virus in culture; assay type: cell-based, Bacillus subtilis
Method in brief: as §1

MDREC 1229 [9] = assay type: cell-based, Escherichia coli
Method in brief: as §3

E. coli [10] = assay type: cell-based, Escherichia coli; conditions: E. coli
Method in brief: as §3

S. aureus = assay: microbe, parasite or virus in culture; assay type: cell-based, Staphylococcus aureus
Method in brief: as §1

S. epidermidis = assay: microbe, parasite or virus in culture; assay type: cell-based, Staphylococcus epidermidis
Method in brief: as §1

MDRST 8009 = assay type: cell-based, Salmonella typhimurium; conditions: agent alone
Method in brief: as §1

[11] = erythromycin 4 μg/ml (Conc./MIC 1/8)
[12] = erythromycin 8 μg/ml (Conc./MIC 1/4)
[13] = erythromycin 16 μg/ml (Conc./MIC 1/2)
[14] = erythromycin 32 μg/ml (Conc./MIC 1)
[15] = vancomycin 512 μg/ml (Conc./MIC 1/2)
[16] = vancomycin 1024 μg/ml (Conc./MIC 1)
[17] = combined with peptide at 1 μg/ml
[18] = combined with peptide at 2 μg/ml
[19] = combined with peptide at 4 μg/ml
[20] = combined with peptide at 6 μg/ml
[21] = combined with peptide at 8 μg/ml
[22] = combined with peptide at 16 μg/ml
[23] = combined with peptide at 32 μg/ml
[24] = combined with peptide at 64 μg/ml
[25] = with Erythromycin […] (Conc./MIC 1)

## CC[C@H](C)[C@H](NC(=O)[C@H](CCCCN)NC(=O)[C@H](Cc1c[nH]c2ccccc12)NC(=O)[C@@H](N)CCCNC(=N)N)C(=O)N[C@@H](Cc1ccccc1)C(=O)N[C@@H](CCCCN)C(=O)N[C@@H](CCCCN)C(=O)N[C@H](C(=O)N1CCC[C@H]1C(=O)N[C@@H](CCCCN)C(=O)N[C@@H](Cc1ccccc1)C(=O)N[C@@H](CC(C)C)C(=O)N[C@@H](Cc1c[nH]cn1)C(=O)N[C@@H](CO)C(=O)N[C@@H](CC(C)C)C(=O)N[C@@H](CCCCN)C(=O)N[C@@H](CCCCN)C(=O)N[C@@H](Cc1ccccc1)C(N)=O)[C@@H](C)CC [PapMA-6, RWK IFK KIP KFL HSL KKF-NH2] (H-RWKIFKKIPKFLHSLKKF-NH2; N-terminus assumed)
P. aeruginosa
  Minimal inhibitory concentration MIC: 16 µg/mL (≈ 6.83 µM)
P. aeruginosa; P. aeruginosa and S. typhimurium
  Antibacterial activity (in words): significantly increased
E. coli [1]; E. coli and MDREC1229
  Synergistic effect of antibacterial activity with existing antibiotics compared with PapMA-1: higher level than the PapMA-1 peptide
E. coli [1]; erythromycin combined with peptide at 1 μg/ml
  Antibiotic MIC, Erythromycin: 64 µg/mL
E. coli [1]; erythromycin combined with peptide at 2 μg/ml
  Antibiotic MIC, Erythromycin: 64 µg/mL
E. coli [1]; erythromycin combined with peptide at 4 μg/ml
  Antibiotic MIC, Erythromycin: 8 µg/mL
E. coli [1]; erythromycin combined with peptide at 6 μg/ml
  Antibiotic MIC, Erythromycin: 4 µg/mL
E. coli [1]; erythromycin combined with peptide at 8 μg/ml
  Antibiotic MIC, Erythromycin: 0.5 µg/mL
E. coli [1]; erythromycin combined with peptide at 16 μg/ml
  Antibiotic MIC, Erythromycin: 0.25 µg/mL
E. coli [1]; erythromycin combined with peptide at 32 μg/ml
  Antibiotic MIC, Erythromycin: 0.125 µg/mL
E. coli [1]; erythromycin combined with peptide at 64 μg/ml
  Antibiotic MIC, Erythromycin: 0 µg/mL
E. coli [1]; linezolid combined with peptide at 1 μg/ml
  Antibiotic MIC, Linezolid: >128 µg/mL
E. coli [1]; linezolid combined with peptide at 2 μg/ml
  Antibiotic MIC, Linezolid: >128 µg/mL
E. coli [1]; linezolid combined with peptide at 4 μg/ml
  Antibiotic MIC, Linezolid: 32 µg/mL
E. coli [1]; linezolid combined with peptide at 6 μg/ml
  Antibiotic MIC, Linezolid: 8 µg/mL
E. coli [1]; linezolid combined with peptide at 8 μg/ml
  Antibiotic MIC, Linezolid: 8 µg/mL
E. coli [1]; linezolid combined with peptide at 16 μg/ml
  Antibiotic MIC, Linezolid: 2 µg/mL
E. coli [1]; linezolid combined with peptide at 32 μg/ml
  Antibiotic MIC, Linezolid: 2 µg/mL
E. coli [1]; linezolid combined with peptide at 64 μg/ml
  Antibiotic MIC, Linezolid: 0 µg/mL
E. coli [1]; vancomycin combined with peptide at 1 μg/ml
  Antibiotic MIC, Vancomycin: >128 µg/mL
E. coli [1]; vancomycin combined with peptide at 2 μg/ml
  Antibiotic MIC, Vancomycin: >128 µg/mL
E. coli [1]; vancomycin combined with peptide at 4 μg/ml
  Antibiotic MIC, Vancomycin: 32 µg/mL
E. coli [1]; vancomycin combined with peptide at 6 μg/ml
  Antibiotic MIC, Vancomycin: 16 µg/mL
E. coli [1]; vancomycin combined with peptide at 8 μg/ml
  Antibiotic MIC, Vancomycin: 8 µg/mL
E. coli [1]; vancomycin combined with peptide at 16 μg/ml
  Antibiotic MIC, Vancomycin: 2 µg/mL
E. coli [1]; vancomycin combined with peptide at 32 μg/ml
  Antibiotic MIC, Vancomycin: 1 µg/mL
E. coli [1]; vancomycin combined with peptide at 64 μg/ml
  Antibiotic MIC, Vancomycin: 0 µg/mL
A. baumannii [2]; [11]
  Peptide MIC during treatment with antibiotic: 4 µg/mL
A. baumannii [2]; [12]
  Peptide MIC during treatment with antibiotic: 2 µg/mL
A. baumannii [2]; [13]
  Peptide MIC during treatment with antibiotic: 1 µg/mL
A. baumannii [2]; [14]
  Peptide MIC during treatment with antibiotic: 0 µg/mL
A. baumannii [2]; linezolid 32 μg/ml (Conc./MIC 1/8)
  Peptide MIC during treatment with antibiotic: 4 µg/mL
A. baumannii [2]; linezolid 64 μg/ml (Conc./MIC 1/4)
  Peptide MIC during treatment with antibiotic: 2 µg/mL
A. baumannii [2]; linezolid […] (Conc./MIC 1)
  Peptide MIC during treatment with antibiotic: 0 µg/mL
A. baumannii [2]; linezolid […] (Conc./MIC 1/2)
  Peptide MIC during treatment with antibiotic: 1 µg/mL
A. baumannii [2]; [15]
  Peptide MIC during treatment with antibiotic: 0.25 µg/mL
A. baumannii [2]; [16]
  Peptide MIC during treatment with antibiotic: 0 µg/mL
A. baumannii [2]; vancomycin […] (Conc./MIC 1/4)
  Peptide MIC during treatment with antibiotic: 0.5 µg/mL
A. baumannii [2]; vancomycin […] (Conc./MIC 1/8)
  Peptide MIC during treatment with antibiotic: 2 µg/mL
MDRAB 12035 [3]; [11]
  Peptide MIC during treatment with erythromycin: 4 µg/mL
MDRAB 12035 [3]; [12]
  Peptide MIC during treatment with erythromycin: 2 µg/mL
MDRAB 12035 [3]; [13]
  Peptide MIC during treatment with erythromycin: 1 µg/mL
MDRAB 12035 [3]; [14]
  Peptide MIC during treatment with erythromycin: 0 µg/mL
MDRAB 12035 [3]; linezolid 64 μg/ml (Conc./MIC 1/8)
  Peptide MIC during treatment with linezolid: 2 µg/mL
MDRAB 12035 [3]; linezolid 512 μg/ml (Conc./MIC 1)
  Peptide MIC during treatment with linezolid: 0 µg/mL
MDRAB 12035 [3]; linezolid […] (Conc./MIC 1/2)
  Peptide MIC during treatment with linezolid: 1 µg/mL
MDRAB 12035 [3]; linezolid […] (Conc./MIC 1/4)
  Peptide MIC during treatment with linezolid: 1 µg/mL
MDRAB 12035 [3]; [15]
  Peptide MIC during treatment with vancomycin: 1 µg/mL
MDRAB 12035 [3]; [16]
  Peptide MIC during treatment with vancomycin: 0.25 µg/mL
MDRAB 12035 [3]; vancomycin […] (Conc./MIC 1/4)
  Peptide MIC during treatment with vancomycin: 2 µg/mL
MDRAB 12035 [3]; vancomycin […] (Conc./MIC 1/8)
  Peptide MIC during treatment with vancomycin: 2 µg/mL
MDREC 1229 [4]
  Minimal inhibitory concentration MIC: 64 µg/mL (≈ 27.3 µM)
E. coli [5]
  Minimal inhibitory concentration MIC: 64 µg/mL (≈ 27.3 µM)
A. baumannii [6]
  Minimal inhibitory concentration MIC: 32 µg/mL (≈ 13.7 µM)
  Peptide MIC, peptide alone: 32 µg/mL
MDRAB 12035 [7]
  Minimal inhibitory concentration MIC: 64 µg/mL (≈ 27.3 µM)
  Peptide MIC, peptide alone: 64 µg/mL
A. baumannii [8]; A. baumannii and MDRAB 12035
  Synergistic effect of antibacterial activity with existing antibiotics compared with PapMA-1: higher level than the PapMA-1 peptide
A. baumannii [8]; [17]
  Antibiotic MIC, Erythromycin: 16 µg/mL
  Antibiotic MIC, Linezolid: 128 µg/mL
  Antibiotic MIC, Vancomycin: >128 µg/mL
A. baumannii [8]; [18]
  Antibiotic MIC, Erythromycin: 8 µg/mL
  Antibiotic MIC, Linezolid: 64 µg/mL
  Antibiotic MIC, Vancomycin: 128 µg/mL
A. baumannii [8]; [19]
  Antibiotic MIC, Erythromycin: 4 µg/mL
  Antibiotic MIC, Linezolid: 8 µg/mL
  Antibiotic MIC, Vancomycin: 16 µg/mL
A. baumannii [8]; [20]
  Antibiotic MIC, Erythromycin: 2 µg/mL
  Antibiotic MIC, Linezolid: 4 µg/mL
  Antibiotic MIC, Vancomycin: 8 µg/mL
A. baumannii [8]; [21]
  Antibiotic MIC, Erythromycin: 0.125 µg/mL
  Antibiotic MIC, Linezolid: 2 µg/mL
  Antibiotic MIC, Vancomycin: 4 µg/mL
A. baumannii [8]; [22]
  Antibiotic MIC, Erythromycin: 0.0625 µg/mL
  Antibiotic MIC, Linezolid: 0.5 µg/mL
  Antibiotic MIC, Vancomycin: 2 µg/mL
A. baumannii [8]; [23]
  Antibiotic MIC, Erythromycin: 0 µg/mL
  Antibiotic MIC, Linezolid: 0 µg/mL
  Antibiotic MIC, Vancomycin: 0 µg/mL
A. baumannii [8]; [24]
  Antibiotic MIC, Erythromycin: 0 µg/mL
  Antibiotic MIC, Linezolid: 0 µg/mL
  Antibiotic MIC, Vancomycin: 0 µg/mL
B. subtilis
  Minimal inhibitory concentration MIC: >128 µg/mL
MDREC 1229 [9]; [25]
  Peptide MIC: 0 µg/mL
MDREC 1229 [9]; with Linezolid 512 μg/ml (Conc./MIC 1)
  Peptide MIC: 0 µg/mL
E. coli [10]; [25]
  Peptide MIC: 0 µg/mL
E. coli [10]; with Linezolid […] (Conc./MIC 1)
  Peptide MIC: 0 µg/mL
E. coli [10]; with Vancomycin 1024 μg/ml (Conc./MIC 1)
  Peptide MIC: 0 µg/mL
S. aureus
  Minimal inhibitory concentration MIC: >128 µg/mL
S. epidermidis
  Minimal inhibitory concentration MIC: >128 µg/mL
MDRST 8009
  Minimal inhibitory concentration MIC: 64 µg/mL (≈ 27.3 µM)
